Results published in patent US20250163104A1, “MACROCYCLIC IMMUNOMODULATORS” (priority 2021, published 2025).
Where a SMILES comes first, the peptide text is derived from it. Bridges are numbered along the chain shown (N, C = ends). [ ]: non-standard residue; d: D form. The star is where a group is joined. ξ: configuration not given here. Ala(6-(2-MePh)pyridin-3-yl) = Cc1ccccc1-c1ccc(C[C@H](N)C(=O)O)cn1; Bip = N[C@@H](Cc1ccc(-c2ccccc2)cc1)C(=O)O; Phe(3-Me) = Cc1cccc(C[C@H](N)C(=O)O)c1; Val(3-OH) = CC(C)(O)[C@H](N)C(=O)O; Benzoyl(4-F) = O=C(c1ccc(F)cc1)*; ξW = NC(Cc1c[nH]c2ccccc12)C(=O)O; 4Pal = N[C@@H](Cc1ccncc1)C(=O)O; Cha = N[C@@H](CC1CCCCC1)C(=O)O; Cit = NC(=O)NCCC[C@H](N)C(=O)O; dCha = N[C@H](CC1CCCCC1)C(=O)O; Carboxymethyl = O=C(O)C*; Nle = CCCC[C@H](N)C(=O)O; Orn = NCCC[C@H](N)C(=O)O; Pra = C#CC[C@H](N)C(=O)O; Dab = NCC[C@H](N)C(=O)O; Dap = NC[C@H](N)C(=O)O

molecular target: T1, human PD-1 / PD-L1-Ig binding on Jurkat cell line over-expressing human PD-1 (Jurkat-PD-1) (Homo sapiens, UniProt Q15116); test: Jurkat-PD-1 Cell Binding High-Content Screening Assay (CBA); assay type: cell-based; settings: Jurkat-PD-1 cells, PE-labeled PD-L1-Ig 20 nM final; read-out: Jurkat HPD1_PDL1 IC50
T1 construct: expressed in transfected cells; host or cells: Jurkat
In short: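 Compounds were preincubated with Jurkat-hPD-1 cells in DMEM plus 10% fetal calf serum for 2 h at 37° C. Phycoerythrin-labeled PD-L1-Ig (20 nM final) was then added for 1 hour. Cells were fixed in 4% paraformaldehyde with Hoechst 33342, and bound fluorescence was quantified by high-content imaging.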

T1 sequence (Q15116 25-288): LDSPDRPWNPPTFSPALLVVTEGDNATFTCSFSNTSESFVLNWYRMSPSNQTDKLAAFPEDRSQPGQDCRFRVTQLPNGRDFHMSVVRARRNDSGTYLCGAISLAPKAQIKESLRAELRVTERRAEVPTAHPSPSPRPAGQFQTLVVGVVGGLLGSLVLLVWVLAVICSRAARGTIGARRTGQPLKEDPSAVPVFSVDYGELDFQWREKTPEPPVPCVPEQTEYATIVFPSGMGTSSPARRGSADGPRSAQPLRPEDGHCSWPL

IC50	SMILES
34.2 nM	CC(C)C[C@H]1NC(=O)[C@H](CCCN)NC(=O)[C@H](CCC(=O)O)NC(=O)[C@H](Cc2ccc(-c3ccccc3)cc2)NC(=O)[C@H](C(C)C)NC(=O)[C@H](Cc2c[nH]c3ccccc23)NC(=O)[C@H](CC(=O)O)NC(=O)[C@H](Cc2ccc(OCC(=O)O)cc2)NC(=O)[C@H](CN)NC(=O)CSC[C@@H](C(=O)N[C@@H](C)C(N)=O)NC(=O)[C@H]([C@@H](C)O)NC(=O)[C@H](C(C)C)NC(=O)[C@H](CC2CCCCC2)NC(=O)[C@H]([C@@H](C)O)NC1=O [Compound 1517] ({CH2CO}-[Dap]Y(Carboxymethyl)DWV[Bip]E[Orn][dL]T[Cha]VTCA-NH2; thioether N-14)
27.8 nM	CC(C)C[C@@H]1NC(=O)[C@H](CCN)NC(=O)[C@@H](CC(C)C)NC(=O)[C@H](CCCN)NC(=O)[C@H](CCCNC(N)=O)NC(=O)[C@H](Cc2ccc(-c3ccccc3)cc2)NC(=O)[C@H](C(C)C)NC(=O)[C@H](Cc2c[nH]c3ccccc23)NC(=O)[C@H](CC(=O)O)NC(=O)[C@H](Cc2ccc(OCC(=O)O)cc2)NC(=O)[C@H](CN)NC(=O)CSC[C@@H](C(=O)N[C@@H](C)C(N)=O)NC(=O)[C@H]([C@@H](C)O)NC(=O)[C@H](C(C)C)NC1=O [Compound 1241] ({CH2CO}-[Dap]Y(Carboxymethyl)DWV[Bip][Cit][Orn][dL][Dab]LVTCA-NH2; thioether N-14)
14.4 nM	Cc1cccc(C[C@@H]2NC(=O)[C@H](CC(=O)O)NC(=O)[C@H](Cc3ccc(C(=O)O)cc3)NC(=O)[C@H](Cc3ccncc3)NC(=O)CSC[C@@H](C(=O)N[C@@H](C)C(N)=O)NC(=O)[C@H]([C@@H](C)O)NC(=O)[C@H](C(C)C)NC(=O)[C@H](CC3CCCCC3)NC(=O)[C@H](CCN)NC(=O)[C@@H](CC(C)C)NC(=O)[C@H](CCCN)NC(=O)[C@H](C3CCCCC3)NC(=O)[C@H](Cc3ccc(-c4ccccc4)cc3)NC(=O)[C@H](C(C)C)NC2=O)c1 [Compound 1614]
32.7 nM	CC(C)[C@@H]1NC(=O)[C@H](Cc2c[nH]c3ccccc23)NC(=O)[C@H](CC(=O)O)NC(=O)[C@H](Cc2ccncc2)NC(=O)[C@H](Cc2ccc(OCC(=O)O)cc2)NC(=O)CSC[C@@H](C(=O)N[C@@H](C)C(N)=O)NC(=O)[C@H]([C@@H](C)O)NC(=O)[C@H](C(C)C)NC(=O)[C@H](CC2CCCCC2)NC(=O)[C@H](CCN)NC(=O)[C@@H](CC2CCCCC2)NC(=O)[C@H](CCCN)NC(=O)[C@H](C(C)C)NC(=O)[C@H](Cc2ccc(-c3ccccc3)cc2)NC1=O [Compound 1637] ({CH2CO}-Y(Carboxymethyl)[4Pal]DWV[Bip]V[Orn][dCha][Dab][Cha]VTCA-NH2; thioether N-14)
20.8 nM	CC(C)C[C@@H]1NC(=O)C(Cc2c[nH]c3ccccc23)NC(=O)[C@H](CC(=O)O)NC(=O)[C@H](Cc2ccc(O)cc2)NC(=O)[C@H](Cc2ccccc2)NC(=O)CSC[C@@H](C(=O)N[C@@H](C)C(N)=O)NC(=O)[C@H]([C@@H](C)O)NC(=O)[C@H](C(C)C)NC(=O)[C@H](CC(C)C)NC(=O)[C@H](CC(N)=O)NC(=O)[C@@H](CC(C)C)NC(=O)[C@H](CN)NC(=O)[C@H](C(C)C)NC(=O)[C@H](Cc2ccc(-c3ccccc3)cc2)NC1=O (stereo partly drawn) [Compound 1213] ({CH2CO}-FYD[ξW]L[Bip]V[Dap][dL]NLVTCA-NH2; thioether N-14)
17.8 nM	Cc1cccc(C[C@@H]2NC(=O)[C@H](CC(=O)O)NC(=O)[C@H](Cc3ccc(OCC(=O)O)cc3)NC(=O)[C@H](CN)NC(=O)CSC[C@@H](C(=O)N[C@@H](C)C(N)=O)NC(=O)[C@H]([C@@H](C)O)NC(=O)[C@H](C(C)C)NC(=O)[C@H](CC3CCCCC3)NC(=O)[C@H](Cc3cnc[nH]3)NC(=O)[C@@H](CC(C)C)NC(=O)[C@H](CCCN)NC(=O)[C@H](C(C)C)NC(=O)[C@H](Cc3ccc(-c4ccccc4)cc3)NC(=O)[C@H](C(C)C)NC2=O)c1 [Compound 1579]
52.7 nM	CC[C@H](C)[C@@H]1NC(=O)[C@H](C(C)C)NC(=O)[C@H](CC2CCCCC2)NC(=O)[C@H](CCN)NC(=O)[C@@H](CC(C)C)NC(=O)[C@H](CCCN)NC(=O)[C@H](CCCNC(N)=O)NC(=O)[C@H](Cc2ccc(-c3ccccc3)cc2)NC(=O)[C@H](C(C)C)NC(=O)[C@H](Cc2c[nH]c3ccccc23)NC(=O)[C@H](CC(=O)O)NC(=O)[C@H](Cc2ccc(OCC(=O)O)cc2)NC(=O)[C@H](CN)NC(=O)CSC[C@@H](C(=O)N[C@@H](C)C(N)=O)NC1=O [Compound 1320] ({CH2CO}-[Dap]Y(Carboxymethyl)DWV[Bip][Cit][Orn][dL][Dab][Cha]VICA-NH2; thioether N-14)
145 nM	Cc1cccc(C[C@@H]2NC(=O)[C@H](CC(=O)O)NC(=O)[C@H](Cc3ccc(OCC(=O)O)cc3)NC(=O)[C@H](CCCNC(=N)N)NC(=O)CSC[C@@H](C(N)=O)NC(=O)[C@H]([C@@H](C)O)NC(=O)[C@H](C(C)C)NC(=O)[C@H](CC3CCCCC3)NC(=O)[C@H](CCN)NC(=O)[C@@H](CC(C)C)NC(=O)[C@H](CCCN)NC(=O)[C@H](CCCNC(=O)c3ccc(F)cc3)NC(=O)[C@H](Cc3ccc(-c4ccccc4)cc3)NC(=O)[C@H](Cc3ccc(O)cc3)NC2=O)c1 [Compound 2052] ({CH2CO}-RY(Carboxymethyl)D[Phe(3-Me)]Y[Bip][Orn](Benzoyl(4-F))[Orn][dL][Dab][Cha]VTC-NH2; thioether N-14)
16.1 nM	CCCC[C@@H]1NC(=O)[C@H](CC(N)=O)NC(=O)[C@@H](CC(C)C)NC(=O)[C@H](CN)NC(=O)[C@H](C(C)C)NC(=O)[C@H](Cc2ccc(-c3ccccc3)cc2)NC(=O)[C@H](CC(C)C)NC(=O)[C@H](Cc2c[nH]c3ccccc23)NC(=O)[C@H](CC(=O)O)NC(=O)[C@H](Cc2ccc(OCC(=O)O)cc2)NC(=O)[C@H](CN)NC(=O)CSC[C@@H](C(=O)NCC(N)=O)NC(=O)[C@H](CO)NC(=O)[C@H](C(C)C)NC1=O [Compound 1399] ({CH2CO}-[Dap]Y(Carboxymethyl)DWL[Bip]V[Dap][dL]N[Nle]VSCG-NH2; thioether N-14)
29.1 nM	CCCC[C@@H]1NC(=O)[C@H](CC(N)=O)NC(=O)[C@@H](CC(C)C)NC(=O)[C@H](CN)NC(=O)[C@H](C(C)C)NC(=O)[C@H](Cc2ccc(-c3ccccc3)cc2)NC(=O)[C@H](CC(C)C)NC(=O)[C@H](Cc2c[nH]c3ccccc23)NC(=O)[C@H](CC(=O)O)NC(=O)[C@H](Cc2ccncc2)NC(=O)[C@H](CN)NC(=O)CSC[C@@H](C(=O)NCC(N)=O)NC(=O)[C@H](CO)NC(=O)[C@H](C(C)C)NC1=O [Compound 1400] ({CH2CO}-[Dap][4Pal]DWL[Bip]V[Dap][dL]N[Nle]VSCG-NH2; thioether N-14)
6.5 nM	C#CC[C@H](NC(=O)[C@H](CCN)NC(=O)[C@@H]1CSCC(=O)N[C@@H](CN)C(=O)N[C@@H](Cc2ccc(OCC(=O)O)cc2)C(=O)N[C@@H](CC(=O)O)C(=O)N[C@@H](Cc2cccc(C)c2)C(=O)N[C@@H](Cc2ccc(OCC(=O)O)cc2)C(=O)N[C@@H](Cc2ccc(-c3ccccc3)cc2)C(=O)N[C@@H](Cc2ccc(OCC(=O)O)cc2)C(=O)N[C@@H](CCCN)C(=O)N[C@H](CC(C)C)C(=O)N[C@@H](CCN)C(=O)N[C@@H](CC2CCCCC2)C(=O)N[C@@H](C(C)(C)O)C(=O)N[C@@H](CO)C(=O)N1)C(=O)O [Compound 2316] ({CH2CO}-[Dap]Y(Carboxymethyl)D[Phe(3-Me)]Y(Carboxymethyl)[Bip]Y(Carboxymethyl)[Orn][dL][Dab][Cha][Val(3-OH)]SC[Dab][Pra]-OH; thioether N-14)
31 nM	CC(C)C[C@H]1NC(=O)[C@H](CCCN)NC(=O)[C@H](CCCNC(N)=O)NC(=O)[C@H](Cc2ccc(-c3ccccc3)cc2)NC(=O)[C@H](C(C)C)NC(=O)[C@H](Cc2c[nH]c3ccccc23)NC(=O)[C@H](CC(=O)O)NC(=O)[C@H](Cc2ccc(OCC(=O)O)cc2)NC(=O)[C@H](CN)NC(=O)CSC[C@@H](C(=O)N[C@@H](C)C(N)=O)NC(=O)[C@H]([C@@H](C)O)NC(=O)[C@H](C(C)C)NC(=O)[C@H](Cc2ccccc2)NC(=O)[C@H](CCN)NC1=O [Compound 1344] ({CH2CO}-[Dap]Y(Carboxymethyl)DWV[Bip][Cit][Orn][dL][Dab]FVTCA-NH2; thioether N-14)
131 nM	Cc1ccccc1-c1ccc(C[C@@H]2NC(=O)[C@H](CN)NC(=O)CSC[C@@H](C(=O)N[C@@H](C)C(N)=O)NC(=O)[C@H]([C@@H](C)O)NC(=O)[C@H](C(C)C)NC(=O)[C@H](CC3CCCCC3)NC(=O)[C@H](CCN)NC(=O)[C@@H](CC(C)C)NC(=O)[C@H](CCCN)NC(=O)[C@H](CCCNC(N)=O)NC(=O)[C@H](Cc3ccc(-c4ccccc4)cc3)NC(=O)[C@H](C(C)C)NC(=O)[C@H](Cc3c[nH]c4ccccc34)NC(=O)[C@H](CC(=O)O)NC2=O)cn1 [Compound 2135] ({CH2CO}-[Dap][Ala(6-(2-MePh)pyridin-3-yl)]DWV[Bip][Cit][Orn][dL][Dab][Cha]VTCA-NH2; thioether N-14)
11.5 nM	CC[C@H](C)[C@@H]1NC(=O)[C@H](Cc2ccc(-c3ccccc3)cc2)NC(=O)[C@H](C(C)C)NC(=O)[C@H](Cc2c[nH]c3ccccc23)NC(=O)[C@H](CC(=O)O)NC(=O)[C@H](Cc2ccc(O)cc2)NC(=O)[C@H](CC(N)=O)NC(=O)CSC[C@@H](C(=O)N[C@@H](C)C(N)=O)NC(=O)[C@H](CO)NC(=O)[C@H](C(C)C)NC(=O)[C@H](CC(C)C)NC(=O)[C@H](CCN)NC(=O)[C@@H](CC(C)C)NC(=O)[C@H](CCN)NC1=O [Compound 1120] ({CH2CO}-NYDWV[Bip]I[Dab][dL][Dab]LVSCA-NH2; thioether N-14)
15.9 nM	CC(C)[C@@H]1NC(=O)[C@H](Cc2c[nH]c3ccccc23)NC(=O)[C@H](CC(=O)O)NC(=O)[C@H](Cc2ccc(O)cc2)NC(=O)[C@H](CC(N)=O)NC(=O)CSC[C@@H](C(=O)N[C@@H](C)C(N)=O)NC(=O)[C@H]([C@@H](C)O)NC(=O)[C@H](C(C)C)NC(=O)[C@H](CC2CCCCC2)NC(=O)[C@H](CCN)NC(=O)[C@@H](CC2CCCCC2)NC(=O)[C@H](CCCN)NC(=O)[C@H](CCC(=O)O)NC(=O)[C@H](Cc2ccc(-c3ccccc3)cc2)NC1=O [Compound 1442] ({CH2CO}-NYDWV[Bip]E[Orn][dCha][Dab][Cha]VTCA-NH2; thioether N-14)
